11 molecules from ChEMBL document CHEMBL1201862, “PubChem BioAssay data set” (2004) can be followed below.

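Step 1: Grow cells in 96-well plates. Step 2: Expose to compound for 48 hours at 5 concentrations. Step 3: Interpolate endpoints linearly; if unreached, use highest concentration. GI50 marks 50% less growth.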 Active and inactive are the calls of the source. Rule as the data show it: active = GI50 up to about 1.1 µM and inactive = higher.

Some test systems named below: NCI-H460; UACC-257; OVCAR-8; SK-OV-3; HCT-15; HT-29; DMS-273; A549; SN12C; 786-0; K562; LOX IMVI; SF-295; IGROV-1; HOP-92; T47D; A498; MCF7; MDA-MB-435.
What all share (assay): inhibition of tumour cell growth, NCI panel, 48 h

On to `N/C=N/S(=O)(=O)c1ccc(NC(=O)COC(=O)c2cccc3c(=O)c4ccccc4[nH]c23)cc1`, for which the GI50 in the experiment on NCI-H460 was > 100 µM (inactive); in the experiment with UACC-257, > 100 µM (inactive); with OVCAR-8, > 100 µM (inactive); in the experiment with SK-OV-3 it was > 100 µM (inactive); in the experiment with HCT-15 it was above 100 µM; in the experiment on HT-29, > 100 µM (inactive). For the same molecule, the GI50 with DMS-273, in the experiment with A549, in the experiment on SN12C, with 786-0, in the experiment with K562 and with LOX IMVI was > 100 µM (inactive) each time. The GI50 with SF-295 and in the experiment with IGROV-1 was > 100 µM (inactive) in each case.

Regarding `O=c1oc2cc(/N=C/c3ccc4c(c3)OCO4)ccc2c2ccccc12`, the GI50 was 39.8 µM (inactive) with NCI-H460; > 100 µM (inactive) in the experiment with UACC-257; 42.5 µM (inactive) in the experiment on OVCAR-8; 34.1 µM (inactive) in the experiment on SK-OV-3; > 100 µM (inactive) with HOP-92; above 100 µM in the experiment on HCT-15. For the same molecule, the GI50 in the experiment on HT-29 is 50.9 µM (inactive); with A549 it was > 100 µM (inactive); in the experiment with T47D it was 43.7 µM (inactive); in the experiment on SN12C it was 51.9 µM (inactive); in the experiment on 786-0, 35 µM (inactive); with K562, > 100 µM (inactive). Also, the GI50 with A498 is 49.8 µM (inactive); in the experiment on MCF7 it was 54.5 µM (inactive); with LOX IMVI, 79.8 µM (inactive); in the experiment on MDA-MB-435, > 100 µM (inactive); in the experiment on SF-295, 58.6 µM (inactive); in the experiment with IGROV-1 it was 78.3 µM (inactive).

As for `COC1OC(C)C(NC(=O)OCC(Cl)(Cl)Cl)C2OC(C)(C)OC12` (stereo not drawn), the GI50 in the experiment with NCI-H460 is > 100 µM (inactive); with UACC-257 it was > 100 µM (inactive); with OVCAR-8, > 100 µM (inactive); in the experiment with SK-OV-3, > 100 µM (inactive); in the experiment on HOP-92, > 100 µM (inactive); in the experiment on HCT-15, above 100 µM. The GI50 with HT-29, in the experiment on A549, in the experiment with T47D, in the experiment with SN12C, in the experiment on 786-0 and in the experiment with K562 was > 100 µM (inactive) each time. Also, the GI50 was > 100 µM (inactive) in the experiment on A498; > 100 µM (inactive) in the experiment on MCF7; > 10 µM (inactive) in the experiment with LOX IMVI; > 100 µM (inactive) with MDA-MB-435; > 100 µM (inactive) in the experiment with SF-295; > 100 µM (inactive) in the experiment with IGROV-1.

As to `CN(C)c1ccc(C(c2ccc(N(C)C)cc2)c2ccc([N+](=O)[O-])cc2)cc1`, the GI50 with NCI-H460 is > 100 µM (inactive); in the experiment on UACC-257, > 100 µM (inactive); in the experiment with OVCAR-8, > 100 µM (inactive); in the experiment on SK-OV-3, > 100 µM (inactive); in the experiment on HOP-92, > 100 µM (inactive); in the experiment with HCT-15, above 100 µM. In addition, the GI50 with HT-29, in the experiment with A549, in the experiment with T47D, with SN12C, in the experiment with 786-0 and in the experiment on K562 was > 100 µM (inactive) each time. In addition, the GI50 in the experiment on A498, with MCF7, in the experiment on LOX IMVI, in the experiment on MDA-MB-435, in the experiment with SF-295 and in the experiment on IGROV-1 was > 100 µM (inactive) in each case.

With `O=C1C(/C=N/CCc2c[nH]c3ccccc23)C(C(F)(F)F)=NN1c1nc2ccccc2s1` (stereo not drawn), the GI50 is 24.1 µM (inactive) in the experiment on NCI-H460; 18 µM (inactive) with UACC-257; 29.7 µM (inactive) in the experiment on OVCAR-8; 25.3 µM (inactive) in the experiment on SK-OV-3; 16.4 µM (inactive) in the experiment on HOP-92; 29.9 µM in the experiment with HCT-15. The GI50 in the experiment on HT-29 was 27.5 µM (inactive); in the experiment on A549, 18.3 µM (inactive); in the experiment on T47D, 0.664 µM (active); in the experiment with SN12C it was 37.6 µM (inactive); in the experiment with 786-0, 39.2 µM (inactive); in the experiment on K562, 29.2 µM (inactive). Moreover, the GI50 is 20.3 µM (inactive) in the experiment with A498; 23 µM (inactive) in the experiment with MCF7; 27.9 µM (inactive) in the experiment with LOX IMVI; 25.4 µM (inactive) in the experiment with MDA-MB-435; 24 µM (inactive) in the experiment with SF-295; 24.4 µM (inactive) with IGROV-1.

Take `CC(C)CNc1nc(N)nc(O)c1NC=O`: the GI50 in the experiment with NCI-H460 was > 100 µM (inactive); in the experiment with UACC-257, > 100 µM (inactive); in the experiment with OVCAR-8, > 100 µM (inactive); in the experiment with SK-OV-3, > 100 µM (inactive); in the experiment with HOP-92, > 100 µM (inactive); in the experiment on HCT-15 it was above 100 µM. The GI50 in the experiment on HT-29, in the experiment on A549, in the experiment on T47D, in the experiment on SN12C, in the experiment on 786-0 and in the experiment on K562 was > 100 µM (inactive) each time. The GI50 in the experiment with A498, in the experiment with MCF7, in the experiment on LOX IMVI, with MDA-MB-435, in the experiment on SF-295 and in the experiment with IGROV-1 was > 100 µM (inactive) in each case.

Consider `CC1=NN(C(=O)Cc2ccccc2)C(=O)/C1=C/c1c(O)ccc2ccccc12`, for which the GI50 was 69 µM (inactive) with NCI-H460; 37.5 µM (inactive) in the experiment on UACC-257; 37.2 µM (inactive) with OVCAR-8; 2.21 µM in the experiment with HCT-15; 57.3 µM (inactive) in the experiment on HT-29; 50.5 µM (inactive) in the experiment on DMS-273. Besides, the GI50 in the experiment on A549 was > 100 µM (inactive); in the experiment with SN12C it was 34.1 µM (inactive); with 786-0, 83.9 µM (inactive); with K562, 40.6 µM (inactive); in the experiment with LOX IMVI it was 27.5 µM (inactive); with SF-295, 34.1 µM (inactive).

As to `N#C/C=C1\C=CC(O)C(O)C1OC1OC(CO)C(O)C(O)C1O` (stereo not drawn), the GI50 with NCI-H460 is > 100 µM (inactive); with UACC-257, > 100 µM (inactive); with OVCAR-8 it was > 100 µM (inactive); with SK-OV-3 it was > 100 µM (inactive); in the experiment on HOP-92 it was > 100 µM (inactive); in the experiment on HCT-15 it was above 100 µM. Further, the GI50 in the experiment on HT-29, in the experiment with A549, in the experiment on T47D, in the experiment on SN12C, in the experiment with 786-0 and in the experiment with K562 was > 100 µM (inactive) throughout. Also, the GI50 in the experiment on A498, in the experiment on MCF7, in the experiment with LOX IMVI, in the experiment with MDA-MB-435, with SF-295 and in the experiment with IGROV-1 was > 100 µM (inactive) each time.

With `CC(=O)Nc1ccc(/C=C2/NC(=S)N(/C=C3\C(=O)Oc4ccccc4C3=O)C2=O)cc1`, the GI50 in the experiment with NCI-H460 was 35.6 µM (inactive); with UACC-257, > 100 µM (inactive); in the experiment on OVCAR-8, 38.6 µM (inactive); in the experiment on SK-OV-3 it was 66.1 µM (inactive); with HOP-92 it was 63.2 µM (inactive); in the experiment on HCT-15, 32.7 µM. For the same molecule, the GI50 with HT-29 is 44.9 µM (inactive); in the experiment with A549 it was 58.9 µM (inactive); in the experiment with T47D, 64.3 µM (inactive); in the experiment on SN12C it was 94.6 µM (inactive); in the experiment with 786-0, 69 µM (inactive); in the experiment with K562 it was 49.4 µM (inactive). Further, the GI50 is 87.5 µM (inactive) in the experiment with A498; > 100 µM (inactive) in the experiment with MCF7; > 100 µM (inactive) with LOX IMVI; 75.5 µM (inactive) in the experiment with MDA-MB-435; 49.8 µM (inactive) in the experiment with SF-295; 49 µM (inactive) in the experiment with IGROV-1.

As to `COC(=O)C1CCC(=O)N1C(c1ccc(OC)cc1)c1ccc(OC)cc1` (stereo not drawn), the GI50 was > 100 µM (inactive) in the experiment on NCI-H460; > 100 µM (inactive) in the experiment on UACC-257; > 100 µM (inactive) with OVCAR-8; > 100 µM (inactive) in the experiment on SK-OV-3; > 100 µM (inactive) in the experiment with HOP-92; above 100 µM with HCT-15. Moreover, the GI50 was > 100 µM (inactive) in the experiment on HT-29; > 100 µM (inactive) in the experiment on A549; 78.9 µM (inactive) in the experiment with T47D; > 100 µM (inactive) in the experiment with SN12C; > 100 µM (inactive) in the experiment on 786-0; > 100 µM (inactive) in the experiment with K562. For the same molecule, the GI50 with A498, in the experiment with MCF7, in the experiment with LOX IMVI, in the experiment with MDA-MB-435, with SF-295 and with IGROV-1 was > 100 µM (inactive) in each case.

For `C[C@H]1[C@H](C)CC[C@]2(C(=O)OC3OC(CO)C(O)C(O)C3O)CC[C@]3(C)C(=CC[C@@H]4[C@@]5(C)C[C@H]6OC(=O)c7cc(O)c(O)c(O)c7-c7c(cc(O)c(O)c7O)C(=O)O[C@@H]6C(CO)(CO)[C@@H]5CC[C@]43C)[C@H]12` (stereo partly drawn), the GI50 in the experiment with NCI-H460 is 45.1 µM (inactive); with UACC-257 it was > 100 µM (inactive); in the experiment on OVCAR-8, 55.8 µM (inactive); in the experiment with SK-OV-3 it was > 95.5 µM (inactive); with HOP-92, > 100 µM (inactive); in the experiment with HCT-15, 24.8 µM. Also, the GI50 with HT-29 was 24.1 µM (inactive); in the experiment on A549 it was > 100 µM (inactive); with T47D, > 74.8 µM (inactive); with SN12C it was 58.3 µM (inactive); with 786-0 it was 19.5 µM (inactive); with K562, 49.3 µM (inactive). The GI50 in the experiment with A498 was > 100 µM (inactive); with MCF7, 17 µM (inactive); with LOX IMVI it was 16.4 µM (inactive); with MDA-MB-435 it was 18.7 µM (inactive); in the experiment with SF-295 it was 40.6 µM (inactive); in the experiment on IGROV-1 it was > 100 µM (inactive).
